We go through 5 compounds from PMC8795568 (Proceedings of the National Academy of Sciences of the …, 2022).

Series [1] relates to NUT midline carcinoma and other solid cancers. To be noted: patients, cited from earlier work.
The conditions of series [2]: clinical; cited from earlier work.
In series [3] the test system is Panc1 cells. The series can be described thus: Cell growth assay. It counts as cell-based, human. Conditions: Panc1, 1 μM each drug, until DMSO cells reached 100% confluence.
The test system of series [4] is several solid tumors. Conditions: trial terminated; cited from earlier work.
Series [5] has as its system midline nuclear protein in testis (NUT) carcinoma. To be noted: phase IIb trial, closed; ref NCT02296476; cited from earlier work.

Take `CCNC(=O)C[C@@H]1N=C(c2ccc(Cl)cc2)c2cc(OC)ccc2-n2c(C)nnc21` [GSK525762]: in series [1] (adverse effects), the rate of nausea was 40% and the rate of thrombocytopenia is listed as 44%. Further, the partial responses in series [1] is reported as 2 out of 10.

In the case of `COc1cc(OC)c2c(=O)[nH]c(-c3cc(C)c(OCCO)c(C)c3)nc2c1` [RVX000222], the safety result in series [2] is recorded as “improved safety threshold”.

Consider `COc1ccc(CCc2nc3cc(-c4c(C)noc4C)ccc3n2C[C@H](C)N2CCOCC2)cc1Cl` [SGC-CBP30], for which the “cell growth (confluence)” value in series [3] is on record as “marginal effect on cell growth”.

As to `CNC(=O)N1N=C(c2ccc(N3CCN(C)CC3)cc2)c2cc(OC)c(OC)cc2C[C@@H]1C` [BAY1238097], the dose-limiting toxicities entry in series [4] was “high rates of dose-limiting toxicities at subtherapeutic doses”.

For `Cc1sc2c(c1C)C(c1ccc(Cl)cc1)=N[C@@H](CC(=O)Nc1ccc(O)cc1)c1nnc(C)n1-2` [MK-8628], the clinical activity result in series [5] is listed as “lack of detectable clinical activity”.
